# Target: T1, F508del (Homo sapiens, UniProt P13569, DEL508-508)
# T1 construct: expressed in transfected cells
# Test: Protocol 1: membrane potential optical assay (FLIPR III, voltage sensing dye), identification of potentiator compounds
# Type: cell-based
# Conditions: Table 3, compounds of Table 1
# Outline: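 Mouse NIH 3T3 fibroblasts stably expressing F508del, temperature-corrected at 27 °C for 24 h, pretreated with compound, then loaded with voltage-sensing redistribution dye. Forskolin was added in a single step with a chloride gradient (chloride-free gluconate bath; Bath Solution #1 HEPES pH 7.4). Membrane-potential fluorescence read on FLIPR III.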
# T1 sequence (P13569 with tags, fused parts or gaps DEL508-508): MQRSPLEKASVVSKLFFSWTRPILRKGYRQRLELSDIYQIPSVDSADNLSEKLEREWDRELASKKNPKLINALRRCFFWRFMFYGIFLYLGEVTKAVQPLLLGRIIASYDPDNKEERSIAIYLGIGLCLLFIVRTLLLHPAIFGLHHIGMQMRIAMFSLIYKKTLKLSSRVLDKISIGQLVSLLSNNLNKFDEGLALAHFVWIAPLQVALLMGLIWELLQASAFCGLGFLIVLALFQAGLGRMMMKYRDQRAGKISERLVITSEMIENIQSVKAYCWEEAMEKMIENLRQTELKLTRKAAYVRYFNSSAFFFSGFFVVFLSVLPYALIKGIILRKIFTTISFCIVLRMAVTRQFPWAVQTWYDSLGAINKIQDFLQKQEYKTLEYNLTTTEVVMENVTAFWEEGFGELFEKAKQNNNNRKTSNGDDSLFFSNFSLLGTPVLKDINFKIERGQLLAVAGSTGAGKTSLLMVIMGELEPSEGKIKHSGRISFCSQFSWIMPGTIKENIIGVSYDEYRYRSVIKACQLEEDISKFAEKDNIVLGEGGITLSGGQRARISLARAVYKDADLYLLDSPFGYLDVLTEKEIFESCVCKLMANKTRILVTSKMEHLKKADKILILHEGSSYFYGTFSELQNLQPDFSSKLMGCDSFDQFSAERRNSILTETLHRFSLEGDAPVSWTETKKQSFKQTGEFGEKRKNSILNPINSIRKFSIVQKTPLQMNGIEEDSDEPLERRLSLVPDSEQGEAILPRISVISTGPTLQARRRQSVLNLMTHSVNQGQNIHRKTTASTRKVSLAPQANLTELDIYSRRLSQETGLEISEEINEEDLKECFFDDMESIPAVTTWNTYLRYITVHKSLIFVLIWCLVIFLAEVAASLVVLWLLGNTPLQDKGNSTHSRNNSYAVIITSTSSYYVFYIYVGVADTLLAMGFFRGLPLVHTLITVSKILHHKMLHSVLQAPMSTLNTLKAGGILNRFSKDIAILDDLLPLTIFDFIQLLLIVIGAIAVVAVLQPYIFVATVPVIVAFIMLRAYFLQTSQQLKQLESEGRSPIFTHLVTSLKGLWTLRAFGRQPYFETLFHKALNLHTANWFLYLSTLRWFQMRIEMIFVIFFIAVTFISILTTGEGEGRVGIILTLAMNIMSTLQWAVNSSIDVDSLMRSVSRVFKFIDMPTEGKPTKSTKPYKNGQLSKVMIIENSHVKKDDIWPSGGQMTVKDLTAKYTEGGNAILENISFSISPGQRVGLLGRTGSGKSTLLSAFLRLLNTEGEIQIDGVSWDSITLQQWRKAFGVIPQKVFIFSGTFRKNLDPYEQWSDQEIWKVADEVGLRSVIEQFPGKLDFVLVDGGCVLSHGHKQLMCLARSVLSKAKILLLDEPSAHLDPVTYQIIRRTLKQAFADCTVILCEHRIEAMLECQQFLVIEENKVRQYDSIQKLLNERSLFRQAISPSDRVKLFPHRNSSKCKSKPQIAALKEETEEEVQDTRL
row,Structure (SMILES),EC30
1,"C[C@@H]1CN(c2nc(C(C)(C)C)c(/C=C/C(C)(C)C)cc2C(=O)NS(=O)(=O)c2cccc(N)n2)C(C)(C)C1 [Compound 1613, N-[(6-amino-2-pyridyl)sulfonyl]-6-tert-butyl-5-[(E)-3,3-dimethylbut-1-enyl]-2-[(4S)-2,2,4-trimethylpyrrolidin-1-yl]pyridine-3-carboxamide]",+++ (“+++” means <3 uM)
2,"CC(C)COc1ccc(F)c(-c2ccc(C(=O)NS(=O)(=O)c3cccc(N)n3)c(N3CCC(C)CC3)n2)c1 [Compound 1109, N-[(6-amino-2-pyridyl)sulfonyl]-6-(2-fluoro-5-isobutoxy-phenyl)-2-(4-methyl-1-piperidyl)pyridine-3-carboxamide]",++ (“++” means between 3 uM and 10 uM)
3,"Cc1cc(C)c(Oc2nc(C3=CCCCCC3)ccc2C(=O)NS(=O)(=O)c2cccc(N)n2)c(C)c1 [Compound 1513, N-[(6-amino-2-pyridyl)sulfonyl]-6-(cyclohepten-1-yl)-2-(2,4,6-trimethylphenoxy)pyridine-3-carboxamide]",+++ (“+++” means <3 uM)
4,"Cc1cc(C)c(Oc2nc(C3=CCSCC3)ccc2C(=O)NS(=O)(=O)c2cccc(N)n2)c(C)c1 [Compound 1517, N-[(6-amino-2-pyridyl)sulfonyl]-6-(3,6-dihydro-2H-thiopyran-4-yl)-2-(2,4,6-trimethylphenoxy)pyridine-3-carboxamide]",+++ (“+++” means <3 uM)
5,"Cc1cc(C)c(Oc2nc(-c3ccc(C(C)C)cc3)ccc2C(=O)NS(=O)(=O)c2ccc[nH]c2=O)c(C)c1 [Compound 1002, 6-(4-isopropylphenyl)-N-[(2-oxo-1H-pyridin-3-yl)sulfonyl]-2-(2,4,6-trimethylphenoxy)pyridine-3-carboxamide]",+++ (“+++” means <3 uM)
6,"CC(C)COc1cc(F)cc(-c2ccc(C(=O)NS(=O)(=O)c3cccc(N)n3)c(OC3CCCCC3C)n2)c1 (centres unmarked) [Compound 1108, N-[(6-amino-2-pyridyl)sulfonyl]-6-(3-fluoro-5-isobutoxy-phenyl)-2-(2-methylcyclohexoxy)pyridine-3-carboxamide]",+++ (“+++” means <3 uM)
7,"C[C@@H]1CN(c2nc(CCC3CC3)ccc2C(=O)NS(=O)(=O)c2cccc(N)n2)C(C)(C)C1 [Compound 1677, N-[(6-amino-2-pyridyl)sulfonyl]-6-(2-cyclopropylethyl)-2-[(4S)-2,2,4-trimethylpyrrolidin-1-yl]pyridine-3-carboxamide]",+++ (“+++” means <3 uM)
8,"CC(C)COc1cc(F)cc(-c2ccc(C(=O)NS(=O)(=O)c3ccn[nH]3)c(N3CCC(F)(F)CC3)n2)c1 [Compound 1006, 2-(4,4-difluoro-1-piperidyl)-6-(3-fluoro-5-isobutoxy-phenyl)-N-(1H-pyrazol-5-ylsulfonyl)pyridine-3-carboxamide]",+++ (“+++” means <3 uM)
9,"COc1cc(C(C)(C)C)nc(Oc2c(C)cc(C)cc2C)c1C(=O)NS(=O)(=O)c1cccc(N)c1 [Compound 959, N-(3-aminophenyl)sulfonyl-6-tert-butyl-4-methoxy-2-(2,4,6-trimethylphenoxy)pyridine-3-carboxamide]",+++ (“+++” means <3 uM)
10,"CC(C)COc1cc(F)cc(-c2ccc(C(=O)NS(=O)(=O)c3ccn[nH]3)c(N3CCCC(C)(C)C3)n2)c1 [Compound 1005, 2-(3,3-dimethyl-1-piperidyl)-6-(3-fluoro-5-isobutoxy-phenyl)-N-(1H-pyrazol-5-ylsulfonyl)pyridine-3-carboxamide]",+++ (“+++” means <3 uM)
11,CC(C)COc1cc(F)cc(-c2ccc(C(=O)NS(=O)(=O)c3cccc(N)n3)c(N3C[C@H](C)CC34CCC4)n2)c1 [Compound 1737],+++ (“+++” means <3 uM)
12,"CCOc1cccc(Oc2cccc(S(=O)(=O)NC(=O)c3cccnc3N3CC(C)CC3(C)C)n2)c1 (centres unmarked) [Compound 1828, N—[[6-(3-ethoxyphenoxy)-2-pyridyl]sulfonyl]-2-(2,2,4-trimethylpyrrolidin-1-yl)pyridine-3-carboxamide]",+++ (“+++” means <3 uM)
13,"CC(C)COc1cc(F)cc(-c2cc(O)c(C(=O)NS(=O)(=O)c3cccc(N)n3)c(N3[C@H](C)CC[C@@H]3C)n2)c1 [Compound 1430, N-[(6-amino-2-pyridyl)sulfonyl]-2-[(2S,5R)-2,5-dimethylpyrrolidin-1-yl]-6-(3-fluoro-5-isobutoxy-phenyl)-4-hydroxy-pyridine-3-carboxamide]",+++ (“+++” means <3 uM)
14,"CC1CCCN(c2nc(C(C)(C)C)ccc2C(=O)NS(=O)(=O)c2cccc(N)n2)C1 (centres unmarked) [Compound 1008, N-[(6-amino-2-pyridyl)sulfonyl]-6-tert-butyl-2-(3-methyl-1-piperidyl)pyridine-3-carboxamide]",+++ (“+++” means <3 uM)
15,"COc1ncccc1S(=O)(=O)NC(=O)C1Cc2ccccc2CCN1Cc1c(C)cc(C)cc1C (centres unmarked) [Compound 876, N-[(2-methoxy-3-pyridyl)sulfonyl]-3-[(2,4,6-trimethylphenyl)methyl]-1,2,4,5-tetrahydro-3-benzazepine-4-carboxamide]",+++ (“+++” means <3 uM)
16,"CCOc1ccc(F)c(-c2ccc(C(=O)NS(=O)(=O)c3ccc[nH]c3=O)c(Oc3c(C)cc(C)cc3C)n2)c1 [Compound 1301, 6-(5-ethoxy-2-fluoro-phenyl)-N-[(2-oxo-1H-pyridin-3-yl)sulfonyl]-2-(2,4,6-trimethylphenoxy)pyridine-3-carboxamide]",++ (“++” means between 3 uM and 10 uM)
17,"Cc1ccc(F)c(-c2ccc(C(=O)NS(=O)(=O)c3ccc[nH]c3=O)c(N3C[C@@H](C)CC3(C)C)n2)c1 [Compound 1946, 6-(2-fluoro-5-methyl-phenyl)-N-[(2-oxo-1H-pyridin-3-yl)sulfonyl]-2-[(4S)-2,2,4-trimethylpyrrolidin-1-yl]pyridine-3-carboxamide]",+++ (“+++” means <3 uM)
18,"Cc1cc(C)c(Oc2nc(N3CCOCC3)ccc2C(=O)NS(=O)(=O)c2cccc(N)n2)c(C)c1 [Compound 966, N-[(6-amino-2-pyridyl)sulfonyl]-6-morpholino-2-(2,4,6-trimethylphenoxy)pyridine-3-carboxamide]",+ (“+” means greater than 10 uM)
19,"CCCC/C=C/c1cnc(N2CC(C)CC2(C)C)c(C(=O)NS(=O)(=O)c2cccc(N)n2)c1 (centres unmarked) [Compound 1916, N-[(6-amino-2-pyridyl)sulfonyl]-5-[(E)-hex-1-enyl]-2-(2,2,4-trimethylpyrrolidin-1-yl)pyridine-3-carboxamide]",+++ (“+++” means <3 uM)
20,"C[C@@H]1CN(c2nc(-c3ccccc3Cl)ccc2C(=O)NS(=O)(=O)c2ccc[nH]c2=O)C(C)(C)C1 [Compound 1784, 6-(2-chlorophenyl)-N-[(2-oxo-1H-pyridin-3-yl)sulfonyl]-2-[(4S)-2,2,4-trimethylpyrrolidin-1-yl]pyridine-3-carboxamide]",+++ (“+++” means <3 uM)
21,"Cc1cc(C(=O)NS(=O)(=O)c2cccc(N)n2)c(N2CC(C)CC2(C)C)nc1-c1cc(F)cc(OCC(C)C)c1 (centres unmarked) [Compound 1269, N-[(6-amino-2-pyridyl)sulfonyl]-6-(3-fluoro-5-isobutoxy-phenyl)-5-methyl-2-(2,2,4-trimethylpyrrolidin-1-yl)pyridine-3-carboxamide]",+++ (“+++” means <3 uM)
22,"CC(C)COc1cc(F)cc(-c2ccc(C(=O)NS(=O)(=O)c3cccc(N)n3)c(OCCCCc3ccccn3)n2)c1 [Compound 1688, N-[(6-amino-2-pyridyl)sulfonyl]-6-(3-fluoro-5-isobutoxy-phenyl)-2-[4-(2-pyridyl)butoxy]pyridine-3-carboxamide]",+++ (“+++” means <3 uM)
23,"CC(C)COc1cc(F)cc(-c2ccc(C(=O)NS(=O)(=O)c3ccn[nH]3)c(N3CCCC(C(F)(F)F)C3)n2)c1 (centres unmarked) [Compound 907, 6-(3-fluoro-5-isobutoxy-phenyl)-N-(1H-pyrazol-5-ylsulfonyl)-2-[3-(trifluoromethyl)-1-piperidyl]pyridine-3-carboxamide]",+++ (“+++” means <3 uM)
24,"Cc1cc(C)c(Oc2nc(-c3ccc4ccn(C)c4c3)ccc2C(=O)NS(=O)(=O)c2ccc[nH]c2=O)c(C)c1 [Compound 936, 6-(1-methylindol-6-yl)-N-[(2-oxo-1H-pyridin-3-yl)sulfonyl]-2-(2,4,6-trimethylphenoxy)pyridine-3-carboxamide]",++ (“++” means between 3 uM and 10 uM)
25,"CC(C)(C)c1ccc(C(=O)NS(=O)(=O)c2ccc(N)cc2)c(C2=CCCCC2)n1 [Compound 880, N-(4-aminophenyl)sulfonyl-6-tert-butyl-2-(cyclohexen-1-yl)pyridine-3-carboxamide]",++ (“++” means between 3 uM and 10 uM)
26,"CC(C)Oc1ccc(-c2ccc(C(=O)NS(=O)(=O)c3cccnc3N)c(N3C[C@@H](C)CC3(C)C)n2)cn1 [Compound 1660, N-[(2-amino-3-pyridyl)sulfonyl]-6-(6-isopropoxy-3-pyridyl)-2-[(4S)-2,2,4-trimethylpyrrolidin-1-yl]pyridine-3-carboxamide]",+++ (“+++” means <3 uM)
27,"CC1CN(c2nc(C(C)(C)C)c(C3=CC4CCC(C3)N4C(=O)OC(C)(C)C)cc2C(=O)NS(=O)(=O)c2cccc(N)n2)C(C)(C)C1 (centres unmarked) [Compound 1388, tert-butyl 3-[5-[(6-amino-2-pyridyl)sulfonylcarbamoyl]-2-tert-butyl-6-(2,2,4-trimethylpyrrolidin-1-yl)-3-pyridyl]-8-azabicyclo[3.2.1]oct-3-ene-8-carboxylate]",+++ (“+++” means <3 uM)
28,"COc1ccc(F)cc1-c1ccc(C(=O)NS(=O)(=O)c2ccc[nH]c2=O)c(N2C[C@@H](C)CC2(C)C)n1 [Compound 1830, 6-(5-fluoro-2-methoxy-phenyl)-N-[(2-oxo-1H-pyridin-3-yl)sulfonyl]-2-[(4S)-2,2,4-trimethylpyrrolidin-1-yl]pyridine-3-carboxamide]",+++ (“+++” means <3 uM)
29,"COc1ccc(COc2cccc(S(=O)(=O)NC(=O)c3cccnc3N3CC(C)CC3(C)C)n2)cc1Cl (centres unmarked) [Compound 1778, N—[[6-[(3-chloro-4-methoxy-phenyl)methoxy]-2-pyridyl]sulfonyl]-2-(2,2,4-trimethylpyrrolidin-1-yl)pyridine-3-carboxamide]",+++ (“+++” means <3 uM)
